Seven compounds from US20250353891A1 (MEDIMMUNE LIMITED, priority 2022, published 2025) can be followed below.

Assay [1] deals with human glucagon receptor (hGCGR) (Homo sapiens, UniProt P47871). In words: cAMP production (HTRF) in CHO cells expressing hGCGR. It is filed as cell-based. On the set-up: expressed in transfected cells. To be noted: geometric mean, read-out: hGluc-R EC50. In a few lines:
(§1)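 Potency values represent EC50 from 4-parameter logistic curves of HTRF % Delta F signal. Receptor-expressing CHO cells (hGCGR 2×10^5 cells/mL, hGLP-1R 1×10^5 cells/mL) were exposed for 30 min at room temperature before two-step cAMP detection.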
(In general: Cyclic AMP is a second messenger, typically raised through Gs and lowered through Gi signalling.)

The target in assay [2] is human GLP-1 receptor (hGLP-1R) (Homo sapiens, UniProt P43220). In words: cAMP production (HTRF) in CHO cells expressing hGLP-1R. It is filed as cell-based. Also on record: expressed in transfected cells. To be noted: for % Relative Potency Ratio: % GLP-1R activity relative to GLP-1 / % GlucR activity relative to glucagon; for EC50: geometric mean, read-out: hGLP-1R EC50. A digest of the protocol: as §1

The mark [3] stands for this setting: Table 6, peptides modified at position 17, cAMP in CHO hGCGR cells.
Where [4] appears, read: Table 6, peptides modified at position 17, cAMP in CHO hGLP-1R cells.
The mark [5] stands for this setting: Table 7, peptides modified at position 20, cAMP in CHO hGCGR cells.
The mark [6] stands for this setting: Table 7, peptides modified at position 20, cAMP in CHO hGLP-1R cells.

Where two headings read alike, the source gives them in different places. Starred links: 1 amine or outer side, 2 acyl side, 3 side chain; linkers in the order of their positions; H or OH if unused. Non-standard residues stand in square brackets, D forms with d. Residues, ends and D or L forms follow the SMILES beside them. Groups on a side chain read outwards from the residue. *: point of attachment. C20 diacid = O=C(O)CCCCCCCCCCCCCCCCCCC(=O)*; C18 diacid = O=C(O)CCCCCCCCCCCCCCCCC(=O)*; Dip = N[C@H](C(=O)O)C(c1ccccc1)c1ccccc1; γGlu = O=C(O)[C@H](CCC(=O)[*:2])N[*:1]; Stearoyl = CCCCCCCCCCCCCCCCCC(=O)*; αMeF = C[C@](N)(Cc1ccccc1)C(=O)O; PEG2 = NCCOCCOCCC(=O)O; AEEA = NCCOCCOCC(=O)O; Aib = CC(C)(N)C(=O)O

Chain of human GLP-1 receptor (hGLP-1R) (P43220 24-463): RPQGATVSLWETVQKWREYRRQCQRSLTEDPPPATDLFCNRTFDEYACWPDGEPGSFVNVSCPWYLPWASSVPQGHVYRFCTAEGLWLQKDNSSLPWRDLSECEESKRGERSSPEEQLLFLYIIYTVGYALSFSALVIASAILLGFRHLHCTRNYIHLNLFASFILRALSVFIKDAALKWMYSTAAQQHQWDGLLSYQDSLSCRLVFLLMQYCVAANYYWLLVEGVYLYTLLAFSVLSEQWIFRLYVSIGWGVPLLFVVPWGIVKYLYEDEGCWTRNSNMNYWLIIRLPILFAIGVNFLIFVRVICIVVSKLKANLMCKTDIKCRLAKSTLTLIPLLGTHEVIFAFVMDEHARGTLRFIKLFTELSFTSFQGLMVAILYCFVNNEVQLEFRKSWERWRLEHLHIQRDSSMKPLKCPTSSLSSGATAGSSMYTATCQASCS
Chain of human glucagon receptor (hGCGR) (P47871 26-477): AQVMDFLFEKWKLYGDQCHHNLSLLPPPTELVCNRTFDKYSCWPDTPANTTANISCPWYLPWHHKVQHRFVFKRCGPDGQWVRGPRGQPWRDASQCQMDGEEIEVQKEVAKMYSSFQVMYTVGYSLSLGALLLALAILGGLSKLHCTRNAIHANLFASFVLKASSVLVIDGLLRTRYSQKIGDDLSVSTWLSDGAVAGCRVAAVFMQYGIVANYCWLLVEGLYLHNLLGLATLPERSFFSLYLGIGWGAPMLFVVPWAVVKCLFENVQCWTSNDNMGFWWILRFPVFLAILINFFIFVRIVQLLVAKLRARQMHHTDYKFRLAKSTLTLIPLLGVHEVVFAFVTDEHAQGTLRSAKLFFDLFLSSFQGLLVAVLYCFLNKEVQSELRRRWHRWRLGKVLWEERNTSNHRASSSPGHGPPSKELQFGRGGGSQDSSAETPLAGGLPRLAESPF

For orientation: EC50 means the concentration that produces a half-maximal response. `CC[C@H](C)[C@H](NC(=O)[C@H](CO)NC(=O)[C@H](CCCCNC(=O)COCCOCCNC(=O)COCCOCCNC(=O)CC[C@H](NC(=O)CC[C@H](NC(=O)CCCCCCCCCCCCCCCCC(=O)O)C(=O)O)C(=O)O)NC(=O)[C@@H](NC(=O)[C@H](Cc1ccccc1)NC(=O)[C@H](CC(=O)O)NC(=O)[C@H](CCC(N)=O)NC(=O)[C@H](C)NC(=O)C(C)(C)NC(=O)[C@H](CCCNC(=N)N)NC(=O)[C@H](CO)NC(=O)[C@H](CC(=O)O)NC(=O)[C@H](CC(C)C)NC(=O)[C@](C)(Cc1ccccc1)NC(=O)[C@H](CCCCN)NC(=O)[C@H](CO)NC(=O)[C@@H](NC(=O)[C@H](CC(=O)O)NC(=O)[C@H](CO)NC(=O)[C@@H](NC(=O)[C@](C)(Cc1ccccc1)NC(=O)[C@H](CO)NC(=O)CNC(=O)[C@H](Cc1c[nH]cn1)NC(=O)C(C)(C)NC(=O)[C@@H](N)Cc1c[nH]cn1)[C@@H](C)O)C(C)C)C(C)C)C(=O)N[C@@H](C)C(=O)N[C@@H](CC(N)=O)C(=O)N[C@H](C(=O)NCC(=O)NCC(N)=O)[C@@H](C)O` [Peptide 382, H(Aib)HGS(αMePhe)TSDVSK(αMePhe)LDSR(Aib)AQDFVK(O2OC-O2OC-γE-γE-C18diacid)24SIANTGG-amide] (H-H[Aib]HGS[αMeF]TSDVSK[αMeF]LDSR[Aib]AQDFVK([AEEA-AEEA-γGlu-γGlu-C18 diacid])SIANTGG-NH2; N-terminus assumed): the EC50 in assay [1] (cAMP, CHO cells, 0.1% BSA) turned out to be 0.329 nM; in assay [2] (cAMP, CHO cells, 0.1% BSA), 0.056 nM. Besides, the “% Relative Potency Ratio” value in assay [2] worked out at 11.6.
Take `CC[C@H](C)[C@H](NC(=O)[C@H](Cc1c[nH]c2ccccc12)NC(=O)[C@H](CCC(N)=O)NC(=O)[C@@H](NC(=O)[C@H](Cc1ccccc1)NC(=O)[C@H](CC(=O)O)NC(=O)[C@H](CCC(N)=O)NC(=O)[C@H](C)NC(=O)[C@H](C)NC(=O)[C@H](CCCCNC(=O)CC[C@H](NC(=O)CCCCCCCCCCCCCCCCC(=O)O)C(=O)O)NC(=O)[C@H](CO)NC(=O)[C@H](CC(=O)O)NC(=O)[C@H](CC(C)C)NC(=O)[C@](C)(Cc1ccccc1)NC(=O)[C@H](CCCCN)NC(=O)[C@H](CO)NC(=O)[C@@H](NC(=O)[C@H](CC(=O)O)NC(=O)[C@H](CO)NC(=O)[C@@H](NC(=O)[C@](C)(Cc1ccccc1)NC(=O)[C@H](CO)NC(=O)CNC(=O)[C@H](CCC(N)=O)NC(=O)[C@H](CO)NC(=O)[C@@H](N)Cc1c[nH]cn1)[C@@H](C)O)C(C)C)C(C)C)C(=O)N[C@@H](C)C(=O)N[C@@H](CC(N)=O)C(=O)N[C@H](C(N)=O)[C@@H](C)O` [Peptide 3] (H-HSQGS[αMeF]TSDVSK[αMeF]LDSK([γGlu-C18 diacid])AAQDFVQWIANT-NH2; N-terminus assumed): the EC50 came out at 0.149 nM in assay [1] (setting [3]) and 0.069 nM in assay [2] (setting [4]). Moreover, the “% Relative Potency Ratio” value in assay [2] (Table 6) turned out to be 4.3.
The matching figures for `CCCCCCCCCCCCCCCCCC(=O)N[C@@H](CCC(=O)NCCOCCOCCC(=O)N[C@@H](CCC(=O)NCCOCCOCCC(=O)NCCCC[C@H](NC(=O)[C@H](CO)NC(=O)[C@H](CC(=O)O)NC(=O)[C@H](CC(C)C)NC(=O)[C@@H](NC(=O)[C@H](CCCCN)NC(=O)[C@H](CO)NC(=O)[C@@H](NC(=O)[C@H](CC(=O)O)NC(=O)[C@H](CO)NC(=O)[C@@H](NC(=O)[C@](C)(Cc1ccccc1)NC(=O)[C@H](CO)NC(=O)CNC(=O)[C@H](CCC(N)=O)NC(=O)[C@H](CO)NC(=O)[C@@H](N)Cc1c[nH]cn1)[C@@H](C)O)C(C)C)C(c1ccccc1)c1ccccc1)C(=O)N[C@@H](C)C(=O)N[C@@H](C)C(=O)N[C@@H](CCC(N)=O)C(=O)N[C@@H](CC(=O)O)C(=O)N[C@@](C)(Cc1ccccc1)C(=O)N[C@H](C(=O)N[C@@H](CCC(=O)O)C(=O)NC(C)(C)C(=O)N[C@H](C(=O)N[C@H](C(=O)N[C@@H](CC(N)=O)C(=O)N[C@H](C(N)=O)[C@@H](C)O)[C@@H](C)CC)[C@@H](C)CC)C(C)C)C(=O)O)C(=O)O` [Peptide 61] (H-HSQGS[αMeF]TSDVSK[Dip]LDSK([PEG2-γGlu-PEG2-γGlu-Stearoyl])AAQD[αMeF]VE[Aib]IINT-NH2; N-terminus assumed): 0.00955 nM, 0.00412 nM and 4.6.
As to `CC[C@H](C)[C@H](NC(=O)C(C)(C)NC(=O)[C@H](CCC(N)=O)NC(=O)[C@@H](NC(=O)[C@](C)(Cc1ccccc1)NC(=O)[C@H](CC(=O)O)NC(=O)[C@H](CCCCNC(=O)CCOCCOCCNC(=O)CCOCCOCCNC(=O)CC[C@H](NC(=O)CC[C@H](NC(=O)CCCCCCCCCCCCCCCCCCC(=O)O)C(=O)O)C(=O)O)NC(=O)[C@H](C)NC(=O)[C@H](C)NC(=O)[C@H](CCCNC(=N)N)NC(=O)[C@H](CO)NC(=O)[C@H](CC(=O)O)NC(=O)[C@H](CC(C)C)NC(=O)[C@](C)(Cc1ccccc1)NC(=O)[C@H](CCCCN)NC(=O)[C@H](CO)NC(=O)[C@@H](NC(=O)[C@H](CC(=O)O)NC(=O)[C@H](CO)NC(=O)[C@@H](NC(=O)[C@](C)(Cc1ccccc1)NC(=O)[C@H](CO)NC(=O)CNC(=O)[C@H](Cc1c[nH]cn1)NC(=O)C(C)(C)NC(=O)[C@@H](N)Cc1c[nH]cn1)[C@@H](C)O)C(C)C)C(C)C)C(=O)N[C@@H](C)C(=O)N[C@@H](CC(N)=O)C(=O)N[C@H](C(N)=O)[C@@H](C)O` [Peptide 264] (H-H[Aib]HGS[αMeF]TSDVSK[αMeF]LDSRAAK([PEG2-PEG2-γGlu-γGlu-C20 diacid])D[αMeF]VQ[Aib]IANT-NH2), the results for the EC50 in assay [1] (setting [5]) and in assay [2] (setting [6]) were 0.297 nM and 0.0695 nM, respectively. The “% Relative Potency Ratio” value in assay [2] (Table 7) was determined as 8.5.
In the case of `CCCCCCCCCCCCCCCCCC(=O)N[C@@H](CCC(=O)N[C@@H](CCC(=O)NCCOCCOCCC(=O)NCCOCCOCCC(=O)NCCCC[C@H](NC(=O)[C@H](CO)NC(=O)[C@H](CC(=O)O)NC(=O)[C@H](CC(C)C)NC(=O)[C@@H](NC(=O)[C@H](CCCCN)NC(=O)[C@H](CO)NC(=O)[C@@H](NC(=O)[C@H](CC(=O)O)NC(=O)[C@H](CO)NC(=O)[C@@H](NC(=O)[C@](C)(Cc1ccccc1)NC(=O)[C@H](CO)NC(=O)CNC(=O)[C@H](CCC(N)=O)NC(=O)[C@H](CO)NC(=O)[C@@H](N)Cc1c[nH]cn1)[C@@H](C)O)C(C)C)C(c1ccccc1)c1ccccc1)C(=O)N[C@@H](C)C(=O)N[C@@H](C)C(=O)N[C@@H](CCC(N)=O)C(=O)N[C@@H](CC(=O)O)C(=O)N[C@@](C)(Cc1ccccc1)C(=O)N[C@H](C(=O)N[C@@H](CCC(N)=O)C(=O)NC(C)(C)C(=O)N[C@H](C(=O)N[C@@H](C)C(=O)N[C@@H](CC(N)=O)C(N)=O)[C@@H](C)CC)C(C)C)C(=O)O)C(=O)O` [Peptide 54] (H-HSQGS[αMeF]TSDVSK[Dip]LDSK([PEG2-PEG2-γGlu-γGlu-Stearoyl])AAQD[αMeF]VQ[Aib]IAN-NH2; N-terminus assumed), the figures for the EC50 in assay [1] (setting [3]) and in assay [2] (setting [4]) were 0.00259 nM and 0.00281 nM, respectively. The “% Relative Potency Ratio” value in assay [2] (Table 6) is on record as 1.8.
Consider `CC[C@H](C)[C@H](NC(=O)[C@H](CO)NC(=O)[C@H](CCC(=O)O)NC(=O)[C@@H](NC(=O)[C@](C)(Cc1ccccc1)NC(=O)[C@H](CC(=O)O)NC(=O)[C@H](CCCCNC(=O)COCCOCCNC(=O)COCCOCCNC(=O)CC[C@H](NC(=O)CC[C@H](NC(=O)CCCCCCCCCCCCCCCCC(=O)O)C(=O)O)C(=O)O)NC(=O)[C@H](C)NC(=O)C(C)(C)NC(=O)[C@H](CCCNC(=N)N)NC(=O)[C@H](CO)NC(=O)[C@H](CC(=O)O)NC(=O)[C@H](CC(C)C)NC(=O)[C@](C)(Cc1ccccc1)NC(=O)[C@H](CCCCN)NC(=O)[C@H](CO)NC(=O)[C@@H](NC(=O)[C@H](CC(=O)O)NC(=O)[C@H](CO)NC(=O)[C@@H](NC(=O)[C@](C)(Cc1ccccc1)NC(=O)[C@H](CO)NC(=O)CNC(=O)[C@H](Cc1c[nH]cn1)NC(=O)C(C)(C)NC(=O)[C@@H](N)Cc1c[nH]cn1)[C@@H](C)O)C(C)C)C(C)C)C(=O)N[C@@H](C)C(=O)N[C@@H](CC(N)=O)C(=O)N[C@H](C(N)=O)[C@@H](C)O` [Peptide 250] (H-H[Aib]HGS[αMeF]TSDVSK[αMeF]LDSR[Aib]AK([AEEA-AEEA-γGlu-γGlu-C18 diacid])D[αMeF]VESIANT-NH2), for which the values for the EC50 in assay [1] (setting [5]) and in assay [2] (setting [6]) were 1.57 nM and 0.601 nM, respectively. Besides, in assay [2] (Table 7), the “% Relative Potency Ratio” value is given as 5.2.
For the compound `CC[C@H](C)[C@H](NC(=O)C(C)(C)NC(=O)[C@H](CCC(N)=O)NC(=O)[C@@H](NC(=O)[C@](C)(Cc1ccccc1)NC(=O)[C@H](CC(=O)O)NC(=O)[C@H](CCCCNC(=O)COCCOCCNC(=O)COCCOCCNC(=O)CC[C@H](NC(=O)CCCCCCCCCCCCCCCCC(=O)O)C(=O)O)NC(=O)[C@H](C)NC(=O)[C@H](C)NC(=O)[C@H](CCC(N)=O)NC(=O)[C@H](CO)NC(=O)[C@H](CC(=O)O)NC(=O)[C@H](CC(C)C)NC(=O)[C@](C)(Cc1ccccc1)NC(=O)[C@H](CCCCN)NC(=O)[C@H](CO)NC(=O)[C@@H](NC(=O)[C@H](CC(=O)O)NC(=O)[C@H](CO)NC(=O)[C@@H](NC(=O)[C@](C)(Cc1ccccc1)NC(=O)[C@H](CO)NC(=O)CNC(=O)[C@H](Cc1c[nH]cn1)NC(=O)C(C)(C)NC(=O)[C@@H](N)Cc1c[nH]cn1)[C@@H](C)O)C(C)C)C(C)C)C(=O)N[C@@H](C)C(=O)N[C@@H](CC(N)=O)C(=O)N[C@H](C(N)=O)[C@@H](C)O` [Peptide 255] (H-H[Aib]HGS[αMeF]TSDVSK[αMeF]LDSQAAK([AEEA-AEEA-γGlu-C18 diacid])D[αMeF]VQ[Aib]IANT-NH2; N-terminus assumed), the EC50 in assay [1] (setting [5]) stood at 0.146 nM; in assay [2] (setting [6]), 0.148 nM. Further, in assay [2] (Table 7), the “% Relative Potency Ratio” value amounted to 2.0.
